Reference: paper PMC9434233, “Transmembrane helices 5 and 12 control transport dynamics, substrate affinity, and specificity in the elevator-type UapA transporter” (Genetics, 2022)

Key:
UapA [1] = target: T1, UapA (Aspergillus nidulans, UniProt Q07307); test: [3H]-xanthine uptake in germinating conidiospores, initial rates; type: cell-based; conditions: pH 6.8, 37°C; H+ symport; labelled compound; read-out: Km app
T1 construct: full-length UapA, C-terminal GFP-type functional tag kept, gpdA promoter, expressed in A. nidulans Δ7 strain lacking 7 major nucleobase transporters; homodimer

UapA [2] = target: T1, UapA; test: competition of [3H]-xanthine uptake in germinating conidiospores; type: cell-based

Molecule `O=c1[nH]c(=O)c2[nH]cnc2[nH]1` [XA, xanthine] has a Km (UapA [1]) of 6 µM.
Molecule `O=c1[nH]c(=O)c2c[nH]nc2[nH]1` [OX, oxypurinol] has a Ki (UapA [2]) of 103 µM.
